The values below come from ChEMBL document CHEMBL3132769, “Fragment growing to retain or alter the selectivity of anchored kinase hinge-binding fragments” (Medchemcomm, 2014).

The structures appear in SMILES notation.

Experiment [1] has as its target T1, Cytoplasmic tyrosine-protein kinase BMX (Homo sapiens) (UniProt P51813).
T1 sequence (whole entry): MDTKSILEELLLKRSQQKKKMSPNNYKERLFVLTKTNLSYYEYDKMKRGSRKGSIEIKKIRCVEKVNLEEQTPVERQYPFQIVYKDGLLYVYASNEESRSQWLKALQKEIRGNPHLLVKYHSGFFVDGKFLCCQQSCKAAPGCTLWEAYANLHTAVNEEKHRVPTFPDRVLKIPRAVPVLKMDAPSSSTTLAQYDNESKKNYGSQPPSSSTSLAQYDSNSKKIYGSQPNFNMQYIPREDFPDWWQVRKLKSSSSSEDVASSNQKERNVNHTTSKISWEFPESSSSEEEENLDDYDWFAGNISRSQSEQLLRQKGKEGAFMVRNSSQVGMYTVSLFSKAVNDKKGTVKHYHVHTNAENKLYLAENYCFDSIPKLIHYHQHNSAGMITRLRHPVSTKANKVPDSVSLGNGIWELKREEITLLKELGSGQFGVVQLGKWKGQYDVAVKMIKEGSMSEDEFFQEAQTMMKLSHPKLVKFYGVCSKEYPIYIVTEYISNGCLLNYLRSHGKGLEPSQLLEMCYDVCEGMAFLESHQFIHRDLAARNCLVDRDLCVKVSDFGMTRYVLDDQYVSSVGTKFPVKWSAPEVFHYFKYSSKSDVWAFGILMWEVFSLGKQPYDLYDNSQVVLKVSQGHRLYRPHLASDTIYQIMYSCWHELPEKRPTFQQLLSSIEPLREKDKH
Nature of the experiment: Inhibition of human full length BMX expressed in baculovirus assessed as substrate phosphorylation using fluorescence-labelled peptides as substrate at 0.2 uM after 90 mins by microfluidic peptide phosphorylation assay.

Experiment [2] addresses T2, Serine/threonine-protein kinase D2 (Homo sapiens) (UniProt Q9BZL6).
T2 sequence (whole entry): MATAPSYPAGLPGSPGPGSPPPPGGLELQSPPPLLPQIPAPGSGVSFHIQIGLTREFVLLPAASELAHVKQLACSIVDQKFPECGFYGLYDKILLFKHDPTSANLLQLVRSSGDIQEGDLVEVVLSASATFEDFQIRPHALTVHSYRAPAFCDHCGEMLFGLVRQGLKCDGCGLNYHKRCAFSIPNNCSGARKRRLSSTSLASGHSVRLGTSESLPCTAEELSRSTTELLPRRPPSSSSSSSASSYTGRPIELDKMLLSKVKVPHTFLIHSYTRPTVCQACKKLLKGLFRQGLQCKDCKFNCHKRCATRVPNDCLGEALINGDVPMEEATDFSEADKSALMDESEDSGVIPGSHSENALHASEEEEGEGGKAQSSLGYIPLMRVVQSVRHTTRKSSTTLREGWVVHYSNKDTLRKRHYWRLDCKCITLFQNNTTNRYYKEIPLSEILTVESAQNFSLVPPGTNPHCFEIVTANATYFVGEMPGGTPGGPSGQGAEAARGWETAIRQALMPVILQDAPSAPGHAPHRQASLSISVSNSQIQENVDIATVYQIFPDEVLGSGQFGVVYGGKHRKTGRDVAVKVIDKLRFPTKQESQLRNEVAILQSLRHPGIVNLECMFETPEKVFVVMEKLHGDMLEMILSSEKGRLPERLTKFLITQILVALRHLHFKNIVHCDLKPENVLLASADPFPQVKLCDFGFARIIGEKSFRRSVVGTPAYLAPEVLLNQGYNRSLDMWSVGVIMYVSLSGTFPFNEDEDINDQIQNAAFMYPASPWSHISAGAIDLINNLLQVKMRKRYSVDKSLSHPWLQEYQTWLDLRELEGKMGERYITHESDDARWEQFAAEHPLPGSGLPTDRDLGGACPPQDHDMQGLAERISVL
As to the kind of experiment: Inhibition of human full length PKD2 expressed in baculovirus assessed as substrate phosphorylation using fluorescence-labelled peptides as substrate at 0.2 uM after 90 mins by microfluidic peptide phosphorylation assay.

The species named for another experiment is Homo sapiens. Nature of the experiment: Inhibition of human P70S6K catalytic domain expressed in baculovirus assessed as substrate phosphorylation using fluorescence-labelled peptides as substrate at 9 uM after 90 mins by microfluidic peptide phosphorylation assay.
The target of experiment [3] is T3, Testis-specific serine/threonine-protein kinase 1 (Homo sapiens) (UniProt Q9BXA7).
T3 sequence (whole entry): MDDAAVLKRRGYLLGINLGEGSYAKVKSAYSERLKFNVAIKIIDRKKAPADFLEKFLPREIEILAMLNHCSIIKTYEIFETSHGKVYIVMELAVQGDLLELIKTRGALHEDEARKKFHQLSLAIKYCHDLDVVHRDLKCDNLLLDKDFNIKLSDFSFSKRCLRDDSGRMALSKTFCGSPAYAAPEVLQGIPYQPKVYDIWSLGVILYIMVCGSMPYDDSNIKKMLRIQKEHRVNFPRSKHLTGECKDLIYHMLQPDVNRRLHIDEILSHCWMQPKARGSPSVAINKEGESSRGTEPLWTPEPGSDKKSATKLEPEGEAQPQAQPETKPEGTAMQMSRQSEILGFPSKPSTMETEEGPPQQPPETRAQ
Nature of the experiment: Inhibition of human full length TSSK1 expressed in baculovirus assessed as substrate phosphorylation using fluorescence-labelled peptides as substrate at 70 uM after 90 mins by microfluidic peptide phosphorylation assay.

Experiment [4] deals with Cyclin-dependent kinase 2 (Homo sapiens) (UniProt P24941). Nature of the experiment: Inhibition of human full length CDK2 expressed in baculovirus assessed as substrate phosphorylation using fluorescence-labelled peptides as substrate at 70 uM after 90 mins by microfluidic peptide phosphorylation assay.
Experiment [5] concerns the target Tyrosine-protein kinase Fyn (Homo sapiens) (UniProt P06241). As to the kind of experiment: Inhibition of human full length FYN expressed in baculovirus assessed as substrate phosphorylation using fluorescence-labelled peptides as substrate at 2 uM after 90 mins by microfluidic peptide phosphorylation assay.
Experiment [6] has as its target T4, Serine/threonine-protein kinase Sgk3 (Homo sapiens) (UniProt Q96BR1).
T4 sequence (whole entry): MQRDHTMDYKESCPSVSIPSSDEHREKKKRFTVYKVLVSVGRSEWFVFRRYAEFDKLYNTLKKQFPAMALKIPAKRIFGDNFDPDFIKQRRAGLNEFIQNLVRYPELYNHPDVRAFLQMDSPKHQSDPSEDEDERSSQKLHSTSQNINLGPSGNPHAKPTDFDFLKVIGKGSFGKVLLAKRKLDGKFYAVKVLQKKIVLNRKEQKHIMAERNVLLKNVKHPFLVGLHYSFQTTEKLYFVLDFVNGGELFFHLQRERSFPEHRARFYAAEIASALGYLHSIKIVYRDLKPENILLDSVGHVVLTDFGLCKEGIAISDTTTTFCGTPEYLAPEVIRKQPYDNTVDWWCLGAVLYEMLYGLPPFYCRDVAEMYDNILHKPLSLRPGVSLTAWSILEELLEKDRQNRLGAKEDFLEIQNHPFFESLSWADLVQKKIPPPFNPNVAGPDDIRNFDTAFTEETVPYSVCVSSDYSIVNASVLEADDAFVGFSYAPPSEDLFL
Nature of the experiment: Inhibition of human full length SGK3 expressed in baculovirus assessed as substrate phosphorylation using fluorescence-labelled peptides as substrate at 95 uM after 90 mins by microfluidic peptide phosphorylation assay.

Sequence of Tyrosine-protein kinase Fyn (Homo sapiens) (P06241 2-537 limits assumed): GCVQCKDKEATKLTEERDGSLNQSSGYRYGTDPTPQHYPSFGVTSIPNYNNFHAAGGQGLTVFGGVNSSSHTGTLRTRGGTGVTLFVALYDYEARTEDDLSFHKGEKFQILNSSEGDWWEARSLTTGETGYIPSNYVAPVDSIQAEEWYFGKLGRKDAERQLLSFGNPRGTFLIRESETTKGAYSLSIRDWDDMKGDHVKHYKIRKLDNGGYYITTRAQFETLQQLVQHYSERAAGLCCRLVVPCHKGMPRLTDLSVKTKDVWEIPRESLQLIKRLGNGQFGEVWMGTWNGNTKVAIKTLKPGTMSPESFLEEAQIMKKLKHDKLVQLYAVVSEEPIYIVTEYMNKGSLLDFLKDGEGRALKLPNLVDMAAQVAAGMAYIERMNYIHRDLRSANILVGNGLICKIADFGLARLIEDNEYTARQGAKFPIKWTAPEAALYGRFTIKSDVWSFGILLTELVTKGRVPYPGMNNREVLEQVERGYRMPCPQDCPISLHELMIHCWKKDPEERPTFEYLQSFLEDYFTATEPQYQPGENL

Consider `Clc1ccc(C2(c3ccc(-c4ncnc5[nH]cnc45)cc3)CCNCC2)cc1`, for which the inhibition turned out to be 4% in experiment [1] and 13% in experiment [2].

Take `NCC1CN(c2ncnc3[nH]c4cnccc4c23)CCO1` (configuration not stated): the inhibition in the experiment listed under Homo sapiens came to 14.5%. With `CNCc1ccc(-c2ncnc3[nH]cnc23)cc1`, the figures for the inhibition in experiment [3] and in experiment [4] were 62% and 34%, respectively. As to `NC1CCN(c2ncnc3[nH]ccc23)CC1`, the inhibition in experiment [5] was 5%. `NCCc1ccc(-c2ncnc3[nH]cnc23)cc1`: the inhibition in experiment [6] is 41.5%.

For orientation: inhibition means the relative decrease from the control value, in per cent.
